Experimental data: patent US10479780B2, “Aminopyrazole derivatives” (Chugai Seiyaku Kabushiki Kaisha, priority 2015, dated 2019)
Where two headings read alike, the source gives them in different places.

Assays:
Assay type in all cases: biochemical
human Yes1 enzyme = target: T1, human Yes1 enzyme (Homo sapiens, UniProt P07947); assay: Yes1 enzyme inhibitory activity (time-resolved fluorometry, biotinylated peptide phosphorylation); conditions: read-out: YES_IC50
T1 construct: made in house
In short: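 Inhibition was expressed against a compound-free control to give IC50, using TR-FRET read-out (Eu-cryptate anti-pTyr antibody, streptavidin-XL665).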

human Lck enzyme = target: T2, human Lck enzyme (Homo sapiens, UniProt P06239); assay: Lck enzyme inhibitory activity (time-resolved fluorometry, biotinylated peptide phosphorylation); conditions: read-out: LCK_IC50
T2 construct: purchased Carna Biosciences, Inc. 08-170
In short: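 Readout pairs a europium cryptate-labelled anti-phosphotyrosine antibody with XL665-streptavidin, measured by time-resolved fluorescence. IC50 derived from percent inhibition against untreated controls.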

human Src enzyme = target: T3, human Src enzyme (Homo sapiens, UniProt P12931); assay: Src enzyme inhibitory activity (time-resolved fluorometry, biotinylated peptide phosphorylation); conditions: read-out: SRC_IC50
T3 construct: purchased Carna Biosciences, Inc. 08-173
In short: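 Compounds were tested for blocking tyrosine phosphorylation of a biotinylated peptide substrate by recombinant human Src. Phosphorylated product was quantified by time-resolved fluorometry using europium cryptate and XL665 conjugates, and IC50 was calculated against the compound-free control.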

[1] = biotinylated peptide phosphorylation

T3 sequence (P12931 whole entry): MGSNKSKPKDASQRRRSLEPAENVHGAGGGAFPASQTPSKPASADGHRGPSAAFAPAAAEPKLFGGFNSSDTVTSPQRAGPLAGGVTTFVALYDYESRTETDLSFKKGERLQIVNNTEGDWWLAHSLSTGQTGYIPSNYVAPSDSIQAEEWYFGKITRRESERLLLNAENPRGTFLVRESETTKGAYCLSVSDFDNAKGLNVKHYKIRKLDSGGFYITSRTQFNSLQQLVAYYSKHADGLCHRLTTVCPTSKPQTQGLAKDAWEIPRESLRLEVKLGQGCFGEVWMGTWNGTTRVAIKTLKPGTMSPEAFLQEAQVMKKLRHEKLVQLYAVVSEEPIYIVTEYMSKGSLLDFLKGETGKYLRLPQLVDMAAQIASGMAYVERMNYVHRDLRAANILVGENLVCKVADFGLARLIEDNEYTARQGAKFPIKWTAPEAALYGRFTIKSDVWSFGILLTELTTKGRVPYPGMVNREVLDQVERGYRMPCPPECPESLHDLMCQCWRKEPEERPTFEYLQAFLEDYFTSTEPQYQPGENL
T2 sequence (P06239 whole entry): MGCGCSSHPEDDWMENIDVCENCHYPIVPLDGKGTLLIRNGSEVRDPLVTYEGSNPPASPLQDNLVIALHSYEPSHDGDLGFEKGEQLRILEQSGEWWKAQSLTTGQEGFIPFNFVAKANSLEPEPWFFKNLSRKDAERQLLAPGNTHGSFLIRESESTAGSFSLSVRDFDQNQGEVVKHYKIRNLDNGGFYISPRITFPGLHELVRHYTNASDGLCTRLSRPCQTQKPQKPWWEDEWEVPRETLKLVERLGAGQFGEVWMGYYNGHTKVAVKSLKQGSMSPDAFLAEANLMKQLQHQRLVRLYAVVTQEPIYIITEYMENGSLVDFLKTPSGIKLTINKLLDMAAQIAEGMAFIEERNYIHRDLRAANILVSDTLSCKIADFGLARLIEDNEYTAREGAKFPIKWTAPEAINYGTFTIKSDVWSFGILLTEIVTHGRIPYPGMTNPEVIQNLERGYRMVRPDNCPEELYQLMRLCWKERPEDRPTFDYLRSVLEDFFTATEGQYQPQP
T1 sequence (P07947 whole entry): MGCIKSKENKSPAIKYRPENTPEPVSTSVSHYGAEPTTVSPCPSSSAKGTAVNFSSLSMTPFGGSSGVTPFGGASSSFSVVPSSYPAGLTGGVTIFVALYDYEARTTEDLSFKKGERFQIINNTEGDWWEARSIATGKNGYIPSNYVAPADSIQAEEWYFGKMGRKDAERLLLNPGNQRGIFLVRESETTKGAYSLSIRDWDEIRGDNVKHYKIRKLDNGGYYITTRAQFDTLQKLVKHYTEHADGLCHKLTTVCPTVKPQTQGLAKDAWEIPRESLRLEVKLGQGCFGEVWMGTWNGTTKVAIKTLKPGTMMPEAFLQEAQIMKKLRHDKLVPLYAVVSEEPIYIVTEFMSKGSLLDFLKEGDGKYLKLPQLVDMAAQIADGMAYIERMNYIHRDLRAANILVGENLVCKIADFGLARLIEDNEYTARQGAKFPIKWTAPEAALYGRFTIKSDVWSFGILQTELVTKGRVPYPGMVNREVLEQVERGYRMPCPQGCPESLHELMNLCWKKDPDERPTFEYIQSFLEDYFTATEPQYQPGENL

Structure (SMILES)	IC50 (human Yes1 enzyme)	IC50 (human Lck enzyme)	IC50 (human Src enzyme)	IC50 (human Yes1 enzyme; [1])	IC50 (human Lck enzyme; [1])	IC50 (human Src enzyme; [1])
Cc1cc(Oc2ccccc2F)ccc1-n1ncc(C(=O)c2cc3cc(F)c(NC(=O)C(F)(F)F)cc3[nH]2)c1N [Example 5-1-029, N-[2-[5-amino-1-[4-(2-fluorophenoxy)-2-methylphenyl]pyrazole-4-carbonyl]-5-fluoro-1H-indol-6-yl]-2,2,2-trifluoroacetamide]	0.73 nM	13 nM	17 nM			
Cc1cc2cc(C(=O)c3cnn(-c4ccc(Oc5ccccc5F)cc4C)c3N)[nH]c2cc1N1C(=O)NC2(CCN(C3COC3)C2)C1=O (stereo not drawn) [Example 5-1-393, 3-[2-[5-amino-1-[4-(2-fluorophenoxy)-2-methylphenyl]pyrazole-4-carbonyl]-5-methyl-1H-indol-6-yl]-7-(oxetan-3-yl)-1,3,7-triazaspiro [4.4]nonane-2,4-dione]	1 nM	4.6 nM	9.8 nM			
Cc1cc(Oc2ccccc2F)ccc1-n1ncc(C(=O)c2cc3cc(OC(F)F)c(C4CCN(S(=O)(=O)C5CC5)CC4)cc3[nH]2)c1N [Example 4-17-004, [5-amino-1-[4-(2-fluorophenoxy)-2-methylphenyl]pyrazol-4-yl]-[6-(1-cyclopropylsulfonylpiperidin-4-yl)-5-(difluoromethoxy)-1H-indol-2-yl]methanone]				9.6 nM	17 nM	22 nM
CC(C)N1CCC(c2cc3cc(C(=O)c4cnn(-c5ccc(Oc6ccccc6Cl)cc5)c4N)[nH]c3cc2F)CC1 [Example 5-1-001, [5-amino-1-[4-(2-chlorophenoxy)phenyl]pyrazol-4-yl]-[6-fluoro-5-(1-propan-2-ylpiperidin-4-yl)-1H-indol-2-yl]methanone]	1.1 nM	2.9 nM	7.6 nM			
Cc1cc(Oc2c(F)cccc2F)ncc1-n1ncc(C(=O)c2cc3cc(F)c(N4C(=O)NC5(CCCCC5)C4=O)cc3[nH]2)c1N [Example 5-1-369, 3-[2-[5-amino-1-[6-(2,6-difluorophenoxy)-4-methylpyridin-3-yl]pyrazole-4-carbonyl]-5-fluoro-1H-indol-6-yl]-1,3-diazaspiro[4.5]decane-2,4-dione]	22 nM	79 nM	560 nM			
Cc1cc(Oc2c(F)cccc2F)ncc1-n1ncc(C(=O)c2cc3cc(F)c(N4CC(C)(C)NS4(=O)=O)cc3[nH]2)c1N [Example 5-1-398, [5-amino-1-[6-(2,6-difluorophenoxy)-4-methylpyridin-3-yl]pyrazol-4-yl]-[6-(4,4-dimethyl-1,1-dioxo-1,2,5-thiadiazolidin-2-yl)-5-fluoro-1H-indol-2-yl]methanone]	2.4 nM	20 nM	95 nM			
Cc1cc(Oc2cccc(F)c2)ncc1-n1ncc(C(=O)c2cc3cc(F)c(NS(C)(=O)=O)cc3[nH]2)c1N [Example 4-2-038, N-[2-[5-amino-1-[6-(3-fluorophenoxy)-4-methylpyridin-3-yl]pyrazole-4-carbonyl]-5-fluoro-1H-indol-6-yl]methanesulfonamide]				1.9 nM	40 nM	130 nM
Cc1cc(Oc2ccccc2F)ccc1-n1ncc(C(=O)c2cc3cc(OCC(F)F)c(N4C(=O)[C@@H]5C[C@@H](NC(=O)OCC6c7ccccc7-c7ccccc76)CN5C4=O)cc3[nH]2)c1N [Example 5-1-270, 9H-fluoren-9-ylmethyl N-[(6R,7aS)-2-[2-[5-amino-1-[4-(2-fluorophenoxy)-2-methylphenyl]pyrazole-4-carbonyl]-5-(2,2-difluoroethoxy)-1H-indol-6-yl]-1,3-dioxo-5,6,7,7a-tetrahydropyrrolo[1,2-c]imidazol-6-yl] carbamate]	4.7 nM	28 nM	130 nM			
Cc1cc(-n2ncc(C(=O)c3cc4cc(OCC(F)F)c(N5CCOC5=O)cc4[nH]3)c2N)ccc1Oc1ccccc1F [Example 5-1-168, 3-[2-[5-amino-1-[4-(2-fluorophenoxy)-3-methylphenyl]pyrazole-4-carbonyl]-5-(2,2-difluoroethoxy)-1H-indol-6-yl]-1,3-oxazolidin-2-one]	1.1 nM	45 nM	210 nM			
Cc1cc(Oc2c(F)cccc2F)ncc1-n1ncc(C(=O)c2cc3cc(OCC(F)F)c(NS(=O)(=O)CCCF)cc3[nH]2)c1N [Example 4-24-032, N-[2-[5-amino-1-[6-(2,6-difluorophenoxy)-4-methylpyridin-3-yl]pyrazole-4-carbonyl]-5-(2,2-difluoroethoxy)-1H-indol-6-yl]-3-fluoropropane-1-sulfonamide]				0.64 nM	14 nM	57 nM
Cc1cc2cc(C(=O)c3cnn(-c4c(C)cc(Oc5ccccc5F)cc4F)c3N)[nH]c2cc1NS(=O)(=O)CC(=O)NC(C)C [Example 5-1-089, 2-[[2-[5-amino-1-[2-fluoro-4-(2-fluorophenoxy)-6-methylphenyl]pyrazole-4-carbonyl]-5-methyl-1H-indol-6-yl]sulfamoyl]-N-propan-2-ylacetamide]	6.2 nM	8.9 nM	77 nM			
Cc1cc(Oc2c(F)cccc2F)ncc1-n1ncc(C(=O)c2cc3cc(OC(F)F)c(NS(=O)(=O)N4CCOCC4)cc3[nH]2)c1N [Example 4-22-003, N-[2-[5-amino-1-[6-(2,6-difluorophenoxy)-4-methylpyridin-3-yl]pyrazole-4-carbonyl]-5-(difluoromethoxy)-1H-indol-6-yl]morpholine-4-sulfonamide]				2.9 nM	62 nM	170 nM
Cc1cc(Oc2ccccc2F)ccc1-n1ncc(C(=O)c2cc3cc(OC(F)F)c(N4CCOC4=O)cc3[nH]2)c1N [Example 4-21-007, 3-[2-[5-amino-1-[4-(2-fluorophenoxy)-2-methylphenyl]pyrazole-4-carbonyl]-5-(difluoromethoxy)-1H-indol-6-yl]-1,3-oxazolidin-2-one]				0.51 nM	6.5 nM	8.7 nM
Cc1cc(Oc2c(F)cccc2F)ncc1-n1ncc(C(=O)c2cc3cc(F)c(NC4CN(S(C)(=O)=O)C4)cc3[nH]2)c1N [Example 5-1-102, [5-amino-1-[6-(2,6-difluorophenoxy)-4-methylpyridin-3-yl]pyrazol-4-yl]-[5-fluoro-6-[(1-methylsulfonylazetidin-3-yl)amino]-1H-indol-2-yl]methanone]	0.77 nM	1.3 nM	5 nM			
Cc1cc2cc(C(=O)c3cnn(-c4cnc(Oc5ccccc5F)cc4C)c3N)[nH]c2cc1NS(=O)(=O)c1cccc(F)c1 [Example 5-1-500, N-[2-[5-amino-1-[6-(2-fluorophenoxy)-4-methylpyridin-3-yl]pyrazole-4-carbonyl]-5-methyl-1H-indol-6-yl]-3-fluorobenzenesulfonamide]				5.7 nM	200 nM	750 nM
Cc1cc(Oc2cccc(Cl)c2)ccc1-n1ncc(C(=O)c2cc3cc(C4CCN(C(C)C)CC4)c(F)cc3[nH]2)c1N [Example 4-2-003, [5-amino-1-[4-(3-chlorophenoxy)-2-methylphenyl]pyrazol-4-yl]-[6-fluoro-5-(1-propan-2-ylpiperidin-4-yl)-1H-indol-2-yl]methanone]				1.4 nM	2.1 nM	6.4 nM
Cc1cc2cc(C(=O)c3cnn(-c4ccc(Oc5ccccc5F)cc4C)c3N)[nH]c2cc1N1C(=O)NC(C)(C(F)(F)F)C1=O (stereo not drawn) [Example 5-1-435, 3-[2-[5-amino-1-[4-(2-fluorophenoxy)-2-methylphenyl]pyrazole-4-carbonyl]-5-methyl-1H-indol-6-yl]-5-methyl-5-(trifluoromethyl) imidazolidine-2,4-dione]				2 nM	21 nM	120 nM
Cc1cc2cc(C(=O)c3cnn(-c4cnc(Oc5ccccc5F)cc4C)c3N)[nH]c2cc1NS(=O)(=O)c1cc(F)cc(F)c1 [Example 5-1-460, N-[2-[5-amino-1-[6-(2-fluorophenoxy)-4-methylpyridin-3-yl]pyrazole-4-carbonyl]-5-methyl-1H-indol-6-yl]-3,5-difluorobenzenesulfonamide]				4.5 nM	200 nM	770 nM
Cc1cc(Oc2c(F)cccc2F)ncc1-n1ncc(C(=O)c2cc3cc(OCC(F)F)c(C4CCOCC4)cc3[nH]2)c1N [Example 5-1-259, [5-amino-1-[6-(2,6-difluorophenoxy)-4-methylpyridin-3-yl]pyrazol-4-yl]-[5-(2,2-difluoroethoxy)-6-(oxan-4-yl)-1H-indol-2-yl] methanone]	7.5 nM	25 nM	50 nM			
Cc1cc(Oc2ccccc2F)ccc1-n1ncc(C(=O)c2cc3cc(F)c(NS(=O)(=O)CCCF)cc3[nH]2)c1N [Example 4-2-015, N-[2-[5-amino-1-[4-(2-fluorophenoxy)-2-methylphenyl]pyrazole-4-carbonyl]-5-fluoro-1H-indol-6-yl]-3-fluoropropane-1-sulfonamide]				0.67 nM	10 nM	19 nM
Cc1cc(Oc2c(F)cccc2F)ncc1-n1ncc(C(=O)c2cc3cc(OCC(F)F)c(N4C(=O)NC5(CCN(C6COC6)CC5)C4=O)cc3[nH]2)c1N [Example 5-1-350, 3-[2-[5-amino-1-[6-(2,6-difluorophenoxy)-4-methylpyridin-3-yl]pyrazole-4-carbonyl]-5-(2,2-difluoroethoxy)-1H-indol-6-yl]-8-(oxetan-3-yl)-1,3,8-triazaspiro[4.5]decane-2,4-dione]	0.88 nM	3.3 nM	13 nM			
